The values below come from patent publication US10308899B2, “Liquid automatic dish washing detergent compositions” (Novozymes A/S, priority 2013, dated 2019).

Residue numbers refer to the chain shown, from its start. Primed or numbered codes have the meaning given here. The star is where a group is joined. aldehyde′ = not defined here; Cbz = O=C(OCc1ccccc1)*; Moc = COC(=O)*

For series [1] the following is noted: logarithmic stability constant of the cation/chelator complex; ionic strength of 0.1 M, 25° C.; cited from earlier work.
In series [2] the target is Protease4 (subtilisin BPN′) (Bacillus amyloliquefaciens, UniProt P00782, Y324L). Kind of series: Storage stability of Protease4 in liquid ADW detergent (residual protease activity, N,N-dimethylcasein hydrolysis). Type of series: biochemical. The settings on record: Detergent A, Example 2. An excerpt:
Chemicals used as buffers and substrates were commercial products of at least reagent grade. Protease1, Protease2, Protease3, and Protease4, as used in the examples below, are subtilisin proteases. Protease1 has the amino acid sequence shown in SEQ ID NO: 1 (subtilisin 309). Protease2 has the amino acid sequence shown in SEQ ID NO: 2 (variant of subtilisin 309). Protease3 has the amino acid sequence shown in SEQ ID NO: 3 (variant of subtilisin 309). Protease4 has the amino acid sequence shown in SEQ ID NO: 4 (subtilisin BPN′).
Various peptide aldehydes were produced, all with a purity >80%. The peptide aldehydes were dissolved in DMSO to a concentration of 10 mg/ml before use.
(§1) To detergent A from Example 1, the following amount of enzyme and different inhibitors (peptide aldehydes) were added, all samples normalized to 100 g of detergent. […] Three subtilisin proteases were used: Protease1, Protease2, and Protease4, all in concentration of 0.04 g active enzyme protein per gram of enzyme solution.
(§2) The detergents were placed in closed glasses at 37° C. for 2 weeks. Residual activity of protease was measured (by comparison to a reference stored at −18° C.) using standard enzyme analytical method (protease activity measured by hydrolysis of N,N-dimethylcasein at 40° C., pH=8.3).

The target in series [3] is T1, Protease1 (subtilisin 309) (Bacillus lentus).
T1 chain: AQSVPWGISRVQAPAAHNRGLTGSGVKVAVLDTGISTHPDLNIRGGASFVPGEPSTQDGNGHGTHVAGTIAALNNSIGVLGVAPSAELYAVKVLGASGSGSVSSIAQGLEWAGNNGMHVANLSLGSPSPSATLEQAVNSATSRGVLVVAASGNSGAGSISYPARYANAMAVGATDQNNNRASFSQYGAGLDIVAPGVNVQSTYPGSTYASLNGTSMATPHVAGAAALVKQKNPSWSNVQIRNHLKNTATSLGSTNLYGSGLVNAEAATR
Kind of series: cell-based or functional assay.

Series [4] has as its target T2, Protease2 (variant of subtilisin 309) (Artificial sequence).
T2 chain: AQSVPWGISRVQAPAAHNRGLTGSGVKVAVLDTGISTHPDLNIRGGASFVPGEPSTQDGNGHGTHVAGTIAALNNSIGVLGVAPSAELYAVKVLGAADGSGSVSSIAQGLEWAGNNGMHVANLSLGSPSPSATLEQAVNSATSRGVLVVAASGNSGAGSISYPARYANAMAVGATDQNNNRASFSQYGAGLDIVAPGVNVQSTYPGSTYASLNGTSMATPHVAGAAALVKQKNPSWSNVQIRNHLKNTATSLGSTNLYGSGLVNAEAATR
Kind of series: cell-based or functional assay.

Series [5] addresses Protease3 (variant of subtilisin 309) (Lederbergia lenta, UniProt P29600, INS97E). Kind of series: Storage stability of Protease3 in liquid ADW detergent (residual protease activity, N,N-dimethylcasein hydrolysis). The settings on record: Protease3, no inhibitor. Type of series: biochemical. The protocol:
(§3) Chemicals used as buffers and substrates were commercial products of at least reagent grade. Protease1, Protease2, Protease3, and Protease4, as used in the examples below, are subtilisin proteases. Protease1 has the amino acid sequence shown in SEQ ID NO: 1 (subtilisin 309). […] Protease4 has the amino acid sequence shown in SEQ ID NO: 4 (subtilisin BPN′).
(§4) The peptide aldehyde hydrosulfite adduct described above was dissolved in 40% propylene glycol and water was added to make a 24% w/w solution of the adduct.
(§5) [formula] […] Protease2 and Protease3 were used in concentrations of 0.04 g active enzyme protein per gram of enzyme solution.
as §2

Series [6] deals with Protease2 (variant of subtilisin 309) (Lederbergia lenta, UniProt P29600, DUP96-96/S97D). Kind of series: Storage stability of Protease2 in liquid ADW detergent (residual protease activity, N,N-dimethylcasein hydrolysis). Type of series: biochemical. The following applies: Protease2, no inhibitor. The protocol: as §3, §4, §5, §2, §1
For series [7], the target named is T3, Protease1 (subtilisin 309) (Lederbergia lenta, UniProt P29600).
T3 sequence (P29600 1-269): T1 chain
Kind of series: Storage stability of Protease1 in liquid ADW detergent (residual protease activity, N,N-dimethylcasein hydrolysis). Format: biochemical. The settings on record: Protease1, no inhibitor, Detergent A, Example 2. As to the method: as §3, §1, §2

The target of series [8] is T4, Protease4 (subtilisin BPN′) (Artificial sequence).
T4 chain: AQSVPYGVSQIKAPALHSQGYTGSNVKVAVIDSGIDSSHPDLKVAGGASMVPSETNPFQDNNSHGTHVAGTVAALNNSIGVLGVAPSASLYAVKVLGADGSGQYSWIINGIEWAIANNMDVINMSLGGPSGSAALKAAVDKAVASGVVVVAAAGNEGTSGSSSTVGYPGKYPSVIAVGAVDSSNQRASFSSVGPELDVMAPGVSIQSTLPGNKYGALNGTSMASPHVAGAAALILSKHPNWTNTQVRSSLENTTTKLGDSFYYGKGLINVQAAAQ
Kind of series: cell-based or functional assay.

Protease3 (variant of subtilisin 309), sequence (P29600 other isoform, or with tags, fused parts or gaps INS97E): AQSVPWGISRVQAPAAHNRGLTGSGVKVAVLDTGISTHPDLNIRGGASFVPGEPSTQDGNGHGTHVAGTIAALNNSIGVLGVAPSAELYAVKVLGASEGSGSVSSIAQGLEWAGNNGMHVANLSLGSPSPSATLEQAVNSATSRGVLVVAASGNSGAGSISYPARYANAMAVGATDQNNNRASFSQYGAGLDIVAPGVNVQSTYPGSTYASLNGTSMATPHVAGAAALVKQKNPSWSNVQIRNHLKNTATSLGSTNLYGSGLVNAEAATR

Take `CC(C(=O)O)N(CC(=O)O)CC(=O)O` (stereo not drawn) [MGDA, methylglycinediacetic acid]: the “Log KCa” value in series [1] is given as 7. `O=P(O)(O)CN(CCN(CP(=O)(O)O)CP(=O)(O)O)CCN(CP(=O)(O)O)CP(=O)(O)O` [DTPMP, Diethylenetriamine Penta(Methylene Phosphonic acid)]: the “Log KCa” value in series [1] is on record as 7.1.

`O=C(O)CC(O)(CC(=O)O)C(=O)O` [Citric acid]: in series [1], the “Log KCa” value was 3.5. As to `O=C(O)CN(CCN(CC(=O)O)CC(=O)O)CC(=O)O` [EDTA, Ethylenediaminetetraacetic acid], the “Log KCa” value in series [1] was 10.7. As to “Moc-Val-Ala-Leu-H (Moc-Val-Ala-Leu-{aldehyde′}; reading uncertain; also: printed as Moc-Val-Ala-Leu-H) [peptide aldehyde, Moc is methoxycarbonyl]”, the “Residual protease activity after two weeks at 37° C.” value (shortened to “Residual protease activity”) in series [2] (Protease4 with 3.3 mg peptide aldehyde/100 g (mole ratio 3.2)) is given as 57%. For the molecule `O=P(O)(O)OP(=O)(O)OP(=O)(O)O` [STPP, sodium tripolyphosphate], in series [1], the “Log KCa” value is recorded as 5.36. Regarding `CC(O)(P(=O)(O)O)P(=O)(O)O` [HEDP, 1-Hydroxy Ethylidene-1,1-Diphosphonic Acid], in series [1], the “Log KCa” value was 6. For the molecule `O=P(O)(O)OP(=O)(O)O` [Pyrophosphate], the “Log KCa” value in series [1] was 5. Regarding `O=C([O-])[O-].[Na+].[Na+]` [Carbonate, sodium carbonate], the “Log KCa” value in series [1] was 7.8.

As to `O=P(O)(O)CN(CP(=O)(O)O)CP(=O)(O)O` [AMP, Amino-tris-(methylene-phosphonic acid)], in series [1], the “Log KCa” value is recorded as 1.7.

In the case of `O=C([O-])CC[C@@H](C(=O)[O-])N(CC(=O)[O-])CC(=O)[O-].[Na+].[Na+].[Na+].[Na+]` [GLDA, L-glutamic acid N,N-diacetic acid tetra sodium salt], the “Log KCa” value in series [1] is reported as 5.2. As to `O=C(O)CN(CC(=O)O)CC(=O)O` [NTA, Nitrilotriacetic acid], in series [1], the “Log KCa” value was 6.4. As to `O=P(O)(O)CN(CP(=O)(O)O)CP(=O)(O)O` [NTMP, Nitrilo trimethylene phosphonic acid], the “Log KCa” value in series [1] is 7.6. On to `O=C(O)CC(NC(CC(=O)O)C(=O)O)C(=O)O` (stereo not drawn) [IDS, iminodisuccinic acid], for which, in series [1], the “Log KCa” value is listed as 5.2. Turning to `O=C(O)CC(NCCNC(CC(=O)O)C(=O)O)C(=O)O` (mixture of isomers) [EDDS, ethylenediaminedisuccinic acid], in series [1], the “Log KCa” value was 4.6.

B1: Protease4: subtilisin protease, SEQ ID NO: 4 (subtilisin BPN′) (protein)
chain: T4 chain
modifications: BPN′ variant
In the case of B1, in series [2] (Protease4, no inhibitor), the “Residual protease activity” value is listed as 5%. In the case of Cbz-Gly-Ala-Tyr-aldehyde (also: C-terminal aldehyde on Tyr) [Cbz-Gly-Ala-Tyr-H], the “Residual protease activity” value in series [3] was determined as 81%; in series [4] it was 86%.

B2: Protease3: subtilisin protease, SEQ ID NO: 3 (variant of subtilisin 309) (protein)
chain: T2 chain with A97S, D98E
modifications: variant of SEQ ID NO 1
In the case of B2, the figures for the “Residual protease activity” value in series [5] (Detergent A (invention)), in series [5] (Detergent B (invention)) and in series [5] (Detergent C (reference)) were 6%, 44% and 74%, respectively.

B3: Protease2: subtilisin protease, SEQ ID NO: 2 (variant of subtilisin 309) (protein)
chain: T2 chain
modifications: variant of SEQ ID NO 1
Take B3: the “Residual protease activity” value was found to be 1% in series [6] (Detergent A (invention), Example 1); 1% in series [6] (Detergent A, Example 2); 10% in series [6] (Detergent B (invention), Example 1); 76% in series [6] (Detergent C (reference), Example 1).

B4: Protease1: subtilisin protease, amino acid sequence SEQ ID NO: 1 (subtilisin 309) (protein, listed as Bacillus lentus)
chain: T1 chain
In the case of B4, the “Residual protease activity” value in series [7] worked out at 25%. As to Moc-Val-Ala-Leu-aldehyde (also: C-terminal aldehyde on Leu) [Moc-Val-Ala-Leu-H], the “Residual protease activity” value in series [8] is 57%.
